This is an account of results in paper PMC9848259 (Journal of Enzyme Inhibition and Medicinal Chemistry, 2023).

Series [1] concerns the target T1, BuChE (from equine serum) (Equus caballus, UniProt P81908).
T1 construct: purchased Sigma Aldrich; host or cells: equine serum
The series is described as follows: biochemical. The following applies: for Selectivity for BuChE: IC50(AChE)/IC50(BuChE); for IC50: means ± SD of three experiments.
Method: (§1) The capacity of the novel cyclopentaquinoline hybrids to inhibit AChE (from the electric eel) and BuChE (from equine serum) were determined by the modified colorimetric Ellman’s method[38]^,[39]. Both enzymes, DTNB – Ellman’s reagent (5,5′-dithiobis-(2-nitrobenzoic acid)), acetyltiocholine iodide (ATCI) were obtained from Sigma Aldrich. AChE and BuChE samples in phosphate buffer (PBS) pH 8.0 were incubated in 96-well plates in the presence of the substrate (ATCI), 76 µl of DTNB and the tested compound at various concentration at room temperature for 10 min (AChE) or eight minutes (BuChE).

Series [2] deals with T2, AChE (from the electric eel) (Electrophorus electricus, UniProt O42275).
T2 construct: purchased Sigma Aldrich
The series is described as follows: biochemical. The following applies: for Selectivity for AChE: IC50(BuChE)/IC50(AChE); for IC50: means ± SD of three experiments.
Method: as §1

Series [3] concerns the target T3, Aβ42 (Homo sapiens, UniProt P05067).
T3 construct: expressed in transfected cells; host or cells: Escherichia coli BL21 (DE3), pET vector
The series is described as follows: In cellulo β-amyloid assay, Th-S fluorescence in E. coli over-expressing Aβ42. The class given is cell-based, Escherichia coli. Conditions: 10 µM.
Method: Inhibition assay in Escherichia coli cells over-expressing amyloid proteins. […] Escherichia coli competent cells BL21 (DE3) were transformed with the required pET vectors carrying the DNA sequence of Aβ42 peptide. Because of the addition of the initiation codon ATG in front of genes, the over-expressed Aβ42 contains an additional methionine residue at their N terminus. For overnight culture preparation, a colony of BL21 (DE3) bearing the plasmid to be expressed was inoculated in 10 ml of M9 minimal medium containing 50 μg/ml of kanamycin at 37 °C. […] The bacterial culture was then grown at 37 °C, with orbital agitation of 250 rpm. When the cell density reached OD600nm–0.6, 980 μL of the culture were transferred into 1.5 ml conical tubes containing 10 μL of the compound to be tested dissolved in DMSO, and 10 μL of 100 mM isopropyl 1-thio-β-D-galactopyranoside (IPTG). The final concentration of the compound was set to 10 μM. The samples were grown overnight at 37 °C under agitation at 1400 rpm, using a Thermomixer (Eppendorf, Hamburg, Germany). […]
The fluorescence normalisation was carried out considering as 100% the Th-S fluorescence of the bacterial cells expressing Aβ42 in the absence of drug, and 0% the Th-S fluorescence of the bacterial cells non-expressing Aβ42 (in absence of the protein production inductor, IPTG). […]

The conditions of series [4]: calibration substance; cited from earlier work.
In series [5] the test system is Human hepatic stellate cells (HSCs). The series is described as follows: in vitro. The class given is cell-based. Conditions: 0.1 µM, 24 h. On the procedure: Human hepatic stellate cells (HSCs, Sciencell) were grown in the Stellate Cell Medium (Sciencell) supplemented with 2% Foetal Bovine Serum (Sciencell), 1% Stellate Cell Growth Supplement (Sciencell) and 1% penicillin/streptomycin solution (Sciencell). The cells were cultured in the incubator at 37 °C and 5% CO2. To start the experiment, the cells were seeded at a density of 5 × 10^3 cells/well in 96-well plates and incubated (37 °C, 5% CO2) for 24 h. After incubation, medium was removed from the wells and the cells were exposed to 100 µl of the compound over a range of concentrations (from 0.1 to 10 µM) or 100 µl of culture medium alone (blank control). The cells were then further incubated for 24 h. After this time, the medium was removed, the cells were washed with PBS and 50 µl of MTT solution (0.75 mg/ml) was added to each well. The plates were incubated in the dark at 37 °C for another two hours. The MTT solution was then removed from the wells and 100 µl of DMSO was added. The plates were incubated at room temperature for 10 min and then 5 µl of Sorensen Buffer was added to each well. The plates were swayed and the absorbance at 570 nm was measured with a microplate reader (Synergy H1, BioTek, Winooski, VT, USA). The cell viability was expressed as a percentage of the control values (blank control)[40]^,[46]^,[47].

The test system of series [6] is SH-SY5Y cells. The series is described as follows: Neuroprotection against rotenone/oligomycin A, co-incubation, MTT test. The class given is cell-based, human. The following applies: Rotenone/Oligomycin A 30/10 µM. For orientation: Tetrazolium assays rely on reduction of a dye to a coloured formazan, in cell work by metabolically active cells.
Series [7] has as its system SH-SY5Y cells. The series is described as follows: Neuroprotection against rotenone/oligomycin A, pre-incubation, MTT test. The class given is cell-based, human. The following applies: Rotenone/Oligomycin A 30/10 µM, compound 0.001 µM.
For series [8], the system named is SH-SY5Y cells. The series is described as follows: Neuroprotection against H2O2-induced oxidative stress, MTT test. The class given is cell-based, human. Conditions: H2O2 100 µM.
The target in series [9] is T4, hyaluronidase (Bos taurus, UniProt Q2YDK3).
T4 sequence (Q2YDK3 36-553): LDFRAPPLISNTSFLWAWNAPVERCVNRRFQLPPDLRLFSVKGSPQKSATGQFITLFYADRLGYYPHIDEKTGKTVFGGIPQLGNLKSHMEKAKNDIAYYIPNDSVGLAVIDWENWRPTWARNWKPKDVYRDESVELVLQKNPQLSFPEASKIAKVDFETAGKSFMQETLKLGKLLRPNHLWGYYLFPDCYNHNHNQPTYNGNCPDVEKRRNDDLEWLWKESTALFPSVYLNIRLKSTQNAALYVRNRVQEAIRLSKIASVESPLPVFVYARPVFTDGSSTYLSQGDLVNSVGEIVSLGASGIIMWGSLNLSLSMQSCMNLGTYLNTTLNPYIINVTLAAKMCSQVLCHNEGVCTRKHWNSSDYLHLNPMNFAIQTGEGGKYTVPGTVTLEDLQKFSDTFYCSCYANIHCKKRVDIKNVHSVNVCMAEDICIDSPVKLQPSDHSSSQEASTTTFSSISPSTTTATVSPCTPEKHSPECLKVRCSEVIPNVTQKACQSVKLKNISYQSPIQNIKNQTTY
The series is described as follows: Hyaluronidase inhibition test (turbidimetric). The class given is biochemical. The procedure:
Hyaluronidase inhibition was established by turbidimetry according to USP XXII-NF XVII[43], which was further adapted to use in 96-well plates by Piwowarski et al.[44] and the principle of this assay is based on the following reaction: hyaluronic acid→hyaluronidase depolymerization products+[…]
The ability to inhibit hyaluronidase was assessed using a turbidimetric method based on spectrophotometric measurement of turbidity resulting from the formation of hyaluronan-bovine albumin complexes in an acidic environment. The analysis was performed against a positive control. Briefly, 20 µl of the tested compound in monosodium phosphate buffer (pH 7.0) was added to 40 µl of hyaluronidase solution (22.55 U/ml, Sigma Aldrich) in the same buffer. The mixture was incubated for 10 min in the dark at 37 °C. Next, 40 µl of hyaluronic acid solution (0.03%, Sigma Aldrich) in monosodium phosphate buffer (pH 5.35) was added to all wells and the mixture was further kept in the dark at 37 °C for 45 min. Finally, 300 µl of bovine serum albumin solution (0.1%, Serva) in sodium acetate buffer (pH 3.75) was added to the mixture, and the 96-well plate was incubated at room temperature for next 10 min. Changes in turbidity at 600 nm were measured by a microplate reader (BioTek, Winooski, VT, USA). Heparin (WZF, Polfa) was used as a positive control. […]

In general, IC50 refers to the concentration needed to halve the response being measured.

T1 sequence (P81908 whole entry): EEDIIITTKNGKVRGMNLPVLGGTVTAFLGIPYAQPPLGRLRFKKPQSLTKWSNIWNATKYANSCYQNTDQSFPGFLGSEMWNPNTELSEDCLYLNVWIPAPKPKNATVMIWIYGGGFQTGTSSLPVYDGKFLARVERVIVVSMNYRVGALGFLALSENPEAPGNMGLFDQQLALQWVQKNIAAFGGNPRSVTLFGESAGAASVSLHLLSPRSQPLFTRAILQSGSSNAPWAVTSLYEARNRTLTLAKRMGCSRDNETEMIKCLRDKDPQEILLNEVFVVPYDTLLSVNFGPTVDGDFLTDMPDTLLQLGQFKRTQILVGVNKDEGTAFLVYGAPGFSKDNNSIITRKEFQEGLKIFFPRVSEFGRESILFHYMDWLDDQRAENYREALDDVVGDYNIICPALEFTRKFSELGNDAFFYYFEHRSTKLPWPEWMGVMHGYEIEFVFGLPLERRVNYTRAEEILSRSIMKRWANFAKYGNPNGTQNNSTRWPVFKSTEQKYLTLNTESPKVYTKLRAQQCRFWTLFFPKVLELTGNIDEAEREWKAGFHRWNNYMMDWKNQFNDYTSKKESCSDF
T2 sequence (O42275 24-633): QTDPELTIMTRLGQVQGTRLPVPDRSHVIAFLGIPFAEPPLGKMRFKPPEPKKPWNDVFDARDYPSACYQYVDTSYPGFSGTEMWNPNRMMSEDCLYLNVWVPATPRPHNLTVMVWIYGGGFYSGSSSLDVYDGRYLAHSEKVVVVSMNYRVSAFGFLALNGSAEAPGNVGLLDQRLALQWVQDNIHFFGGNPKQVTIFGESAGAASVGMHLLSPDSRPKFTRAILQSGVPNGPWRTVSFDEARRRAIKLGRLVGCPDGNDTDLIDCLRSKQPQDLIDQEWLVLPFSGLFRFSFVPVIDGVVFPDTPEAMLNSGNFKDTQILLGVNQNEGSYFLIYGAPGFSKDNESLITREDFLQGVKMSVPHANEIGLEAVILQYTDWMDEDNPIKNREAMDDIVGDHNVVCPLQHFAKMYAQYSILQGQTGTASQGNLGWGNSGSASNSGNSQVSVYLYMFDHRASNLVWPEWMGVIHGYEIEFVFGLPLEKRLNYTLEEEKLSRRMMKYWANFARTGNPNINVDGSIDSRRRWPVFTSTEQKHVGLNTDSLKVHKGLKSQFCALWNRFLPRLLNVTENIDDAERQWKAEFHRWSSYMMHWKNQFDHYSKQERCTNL
T3 sequence (P05067 672-713): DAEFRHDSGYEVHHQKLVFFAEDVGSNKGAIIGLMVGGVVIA

In the case of `O=C(NCCNc1c2c(nc3ccccc13)CCC2)c1cc(Cl)cc(Cl)c1` [Compound 3a], in series [1], the “Selectivity for BuChE” value is 6.88 and half-maximal inhibition (IC50) was put at 225 ± 21 nM. Moreover, in series [2], the “Selectivity for AChE” value came out at 0.15 and the IC50 was 1540 ± 121 nM.

Compound `O=C(NCCCNc1c2c(nc3ccccc13)CCC2)c1cc(Cl)cc(Cl)c1` [Compound 3b] returned an IC50 in series [1] of 889 ± 27 nM. In series [2], the “Selectivity for AChE” value turned out to be 0.56 and 1180 ± 134 nM corresponded to half-maximal inhibition (IC50).

Turning to `O=C(NCCCCNc1c2c(nc3ccccc13)CCC2)c1cc(Cl)cc(Cl)c1` [Compound 3c], in series [1], the “Selectivity for BuChE” value came out at 9.18 and it took 126 ± 7 nM to reach half-maximal inhibition (IC50). Also, in series [2], the “Selectivity for AChE” value is 0.11 and half-maximal inhibition (IC50) was put at 1160 ± 130 nM.

Consider `O=C(NCCCCCNc1c2c(nc3ccccc13)CCC2)c1cc(Cl)cc(Cl)c1` [Compound 3d], for which, in [1], the “Selectivity for BuChE” value is given as 0.19 and half-maximal inhibition (IC50) required 1120 ± 180 nM. Further, in series [2], the “Selectivity for AChE” value is recorded as 5.33 and the IC50 is 211 ± 31 nM.

As for `O=C(NCCCCCCCNc1c2c(nc3ccccc13)CCC2)c1cc(Cl)cc(Cl)c1` [Compound 3f], in series [1], the “Selectivity for BuChE” value was determined as 2.16 and half-maximal inhibition (IC50) was put at 117 ± 27 nM. In [2], the “Selectivity for AChE” value is 0.46 and 253 ± 42 nM corresponded to half-maximal inhibition (IC50).

As for `O=C(NCCCCCCCCNc1c2c(nc3ccccc13)CCC2)c1cc(Cl)cc(Cl)c1` [Compound 3g], in series [1], the “Selectivity for BuChE” value amounted to 4.50 and the IC50 is 330 ± 34 nM. In addition, in [2], the “Selectivity for AChE” value was 0.22 and 1480 ± 133 nM corresponded to half-maximal inhibition (IC50).

With `O=C(NCCCCCCCCCNc1c2c(nc3ccccc13)CCC2)c1cc(Cl)cc(Cl)c1` [Compound 3h], in series [1], the “Selectivity for BuChE” value was 1.10 and the IC50 is 131 ± 11 nM. Also, in [2], the “Selectivity for AChE” value was 0.91 and the 50% inhibitory concentration (IC50) stood at 145 ± 13 nM.

Turning to `O=C(NCCCCCCCCNc1c2c(nc3cc(Cl)ccc13)CCCC2)c1ccc2nc(-c3ccc(Cl)cc3)c3c(c2c1)NCCC3` [DP128, reference compound], in series [3], the “anti-amyloid (inhibition) capacity for Aβ42” value was determined as 69.2 ± 4.1.

As to `CC(CN1c2ccccc2Sc2ccccc21)N(C)C.Cl` (stereo not drawn) [Promethazine HCl], in [4], the “Experimental properties pKa” value was 9.10[54].

As to `Nc1c2c(nc3ccccc13)CCCC2` [Tacrine, 9-amino-1,2,3,4-tetrahydroacridine, reference compound], the “cell viability (hepatotoxicity, MTT)” value in series [5] is listed as 100.67%.

Regarding `Cc1c(C)c2c(c(C)c1O)CCC(C)(C(=O)O)O2` (stereo not drawn) [Trolox, reference compound], the “% neuroprotection” value is listed as 5.60% in series [6] (compound 0.001 µM); 4.67% in series [6] (compound 0.01 µM); 0.35% in series [6] (compound 0.1 µM); 2.15% in series [7]; 77.16% in series [8] (compound 0.01 µM); 91.22% in [8] (compound 0.1 µM). Besides, the “% neuroprotection” value in series [8] (compound 1 µM) came to 96.03%; in series [8] (compound 10 µM) it was 95.05%.

Take heparin: the IC50 in [9] was found to be 56400 ± 780 nM.
